{"source": "patent US20180140609A1", "about": "“USE OF (4-HYDROXY-2-METHYL-1,1-DIOXIDO-2H-BENZO[E][1,2]THIAZINE-3-YL)(NAPHTHALENE-2-YL) METHANONE IN THE PREVENTION AND/OR TREATMENT OF NON-ALCOHOLIC STEATOHEPATITIS” (PIERRE FABRE MEDICAMENT, priority 2015, published 2018)", "key": {"[1]": {"tested_on": "11β-HSD type 1 of adipose tissue", "assay": "Ex vivo activity of 11β-HSD type 1 of adipose tissue after single oral administration to cynomolgus monkeys", "assay_type": "in vivo", "details": "20 mg/kg single oral, 4 hours, mesenteric and subcutaneous adipose tissue", "protocol": "(§1) Five adult male cynomolgus monkeys (same animals used in studies 1 and 2 of Example 4) are fasted the evening before the experiment. Blood samples are taken right before administration of Compound 1K (dose of 20 mg/kg, n=3) or administration of the vehicle (0.5% methylcellulose in water, n=2) then 4 hours after oral administration. The animals are euthanized, necropsy is performed on the monkeys, samples of plasma and of target tissues are taken and then frozen in liquid nitrogen and stored at −70° C. until ex vivo analyses. To test the ex vivo activity of 11β-HSD type 1, 5-10 mg liver samples were incubated in duplicate for 30 minutes at 37° C. with 17 nM [1,2-^3H] cortisone in 50 mM HEPES (pH 7.4), 100 mM KCl, 5 mM NaCl, 2 mM MgCl2. Plasma levels were measured by the LC-MS/MS analytical method. The liver samples were homogenized by sonication and extracted with acetonitrile (1 ml of distilled water, 4 ml of acetonitrile for 200 mg of tissue). Tissue levels of the compounds were measured by the LC-MS/MS analytical method.\n(§2) The protocol is the same as that described in Example 5, except that the tissue samples are from mesenteric, subcutaneous and inguinal adipose tissue."}, "[2]": {"assay": "Plasma and tissue levels after single oral administration in cynomolgus monkeys (LC-MS/MS)", "assay_type": "in vivo", "details": "male, cynomolgus monkey, 20 mg/kg oral", "protocol": "as §1, §2"}, "[3]": {"biological_target": "T1, human 11β-HSD type 1 (Homo sapiens, UniProt P28845)", "T1 sequence (P28845 whole entry)": "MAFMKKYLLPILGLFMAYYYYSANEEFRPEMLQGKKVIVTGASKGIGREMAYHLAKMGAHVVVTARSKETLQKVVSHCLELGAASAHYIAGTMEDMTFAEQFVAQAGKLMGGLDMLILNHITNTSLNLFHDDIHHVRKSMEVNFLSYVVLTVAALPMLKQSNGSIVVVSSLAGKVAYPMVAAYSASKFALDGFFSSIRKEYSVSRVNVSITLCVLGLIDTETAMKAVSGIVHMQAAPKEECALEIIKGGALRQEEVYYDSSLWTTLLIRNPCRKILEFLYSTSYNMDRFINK", "assay": "Bioactivity of inguinal white adipose tissue after single oral administration in C57BL/6N mice, read as inhibition of human 11β-HSD type 1 (SPA)", "assay_type": "in vivo", "details": "mouse inguinal white adipose tissue extract", "protocol": "Four hours post-administration, the mice are euthanized and inguinal white adipose tissue is taken and frozen at −70° C. until the day of bioanalyses. The white adipose tissue is homogenized in liquid nitrogen and then treated with acetonitrile (1 ml of distilled water for 4 ml of acetonitrile and 200 mg of inguinal white adipose tissue) to extract soluble substances. The acetonitrile fraction is collected, then dried, and the residue is dissolved in 1 ml of DMSO for 300 mg of white adipose tissue.\nCompounds tested: the same as those of Example 2."}, "[4]": {"assay": "Plasma exposure in cynomolgus monkeys (prednisone challenge studies, LC-MS/MS)", "assay_type": "in vivo", "details": "same dose of 20 mg/kg", "protocol": "Briefly, the study is carried out in naive adult male cynomolgus monkeys fasted overnight. The 11β-HSD type 1 inhibitor or its vehicle (0.5% methylcellulose in water) is administered via nasogastric intubation. Two hours later, a challenge with orally administered prednisone (10 mg/kg) is performed and blood samples are taken regularly for 24 hours. These samples are centrifuged to obtain plasma and immediately frozen at −70° C. until bioanalysis. Plasma levels of prednisone, prednisolone and 11β-HSD type 1 inhibitors are measured by LC-MS/MS analytical methods.\nThe study is carried out over a period of 10 weeks. Profiles of plasma concentration as a function of time and areas under the curve are calculated using the trapezoidal method for all parameters."}, "[5]": {"assay": "Plasma level by LC/MS after single oral administration in C57BL/6N mice", "assay_type": "in vivo", "details": "parent molecule by LC/MS", "protocol": "(§3) The evaluation is made in on 4- to 6-week-old non-fasted male C57BL/6N strain mice. The compounds to be tested or the vehicle (0.5% methylcellulose in water, at 10 ml/kg) are administered orally; n=3 mice per treatment.\n(§4) Blood samples are collected 1 h and 4 h after administration; the tubes are centrifuged to obtain plasma and frozen at −70° C. until bioanalysis. Plasma bioactivity (2% final volume) is analyzed by using the inhibition of human 11β-HSD type 1 as a detection system (SPA technology) for each compound at each dose tested. Percent inhibition (versus mice treated with carrier) is calculated for each dose.\nCompound 1 is detected in the plasma of the treated mice and inhibits 11β-HSD type 1 as of 0.63 mg/kg. LC/MS analyses of plasma samples from the animals treated with Compound 1K show a much higher plasma level of the parent molecule than that found for Compound 1."}, "[6]": {"biological_target": "T1, human 11β-HSD type 1", "assay": "Plasma bioactivity after single oral administration in C57BL/6N mice, read as inhibition of human 11β-HSD type 1 (SPA)", "assay_type": "in vivo", "details": "for inhibition at 2.5 mg/kg / inhibition at 10 mg/kg: po, mice, table with plasma levels; for inhibition at 2.5 mg/kg: 2.5 mg/kg oral; for inhibition at 10 mg/kg: 10 mg/kg oral", "protocol": "as §3, §4"}, "[7]": {"tested_on": "hepatic 11β-HSD type 1", "assay": "Ex vivo activity of hepatic 11β-HSD type 1 after single oral administration in cynomolgus monkeys", "details": "20 mg/kg single oral, liver 4 hours after administration", "protocol": "as §1"}, "[8]": {"biological_target": "T2, human 11β-HSD 1 (Homo sapiens, UniProt P28845)", "T2 construct": "evaluated on primary human adipocytes in culture (ZenBio); host or cells: primary human preadipocytes differentiated into adipocytes, from three donors", "T2 sequence (P28845 whole entry)": "as above", "assay": "Inhibition of human 11β-HSD 1 in primary human differentiated adipocytes in culture (cortisone to cortisol, SPA)", "assay_type": "cell-based", "protocol": "Inhibition of human 11β-HSD 1 enzyme is evaluated on primary human adipocytes in culture (ZenBio).\nPreadipocytes are thawed and their viability is confirmed. The preadipocytes are then placed in 96-well microplates in a specific preadipocyte medium (PM-1) provided by ZenBio; the plates are incubated at 37° C. with 5% CO2. One day or more after the cells are confluent, PM-1 is replaced with a more specific differentiation medium (DM), also provided by ZenBio, containing isobutylmethylxanthine, insulin, dexamethasone and a PPAR agonist. The cells will differentiate into adipocytes after a minimum of 7 days. Next, the mature adipocytes are maintained for 4 to 6 days in adipocyte maintenance medium (AM). Then, in the presence of serum treated with dextran-coated charcoal, the cells are placed in steroid-deficient conditions for 48 h, and are pretreated with the inhibitors to be tested or their carrier (0.1% DMSO) for 1 h at 37° C. before the pulse with cortisone. Tritiated cortisone is added for 4 hours to reach a final concentration of 20 nM. The cortisol concentration is quantified from the cell supernatant using SPA technology. EC50 values are obtained with the SigmaPlot v.11 software, four parameter logistic equation; the reported values come from three different experiments carried out on three different donors."}, "[9]": {"details": "1 h, read-out: Plasma 1 h % inh."}, "[10]": {"details": "4 h, read-out: Plasma 4 h % inh."}}, "note": "Read-outs that look alike come from different tables or passages of the source."}
{"smiles": "CN1C(C(=O)c2ccc3ccccc3c2)=C([O-])c2ccccc2S1(=O)=O.[K+]", "note": "[Compound 1K, potassium 3-(2-naphthoyl)-2-methyl-2H-benzo[e][1,2]thiazin-4-olate 1,1-dioxide]", "values": [{"measurement": "inhibition of ex vivo activity of 11β-HSD type 1 of peripheral and visceral adipose tissue", "setting": "[1]", "result": "complete inhibition"}, {"measurement": "concentration at 4 h", "setting": "[2]; liver, read-out: mean hepatic levels (in relative value)", "result": "13600 ± 3700", "unit": "ng/g"}, {"measurement": "concentration at 4 h", "setting": "[2]; inguinal adipose tissue, read-out: tissue levels (in relative value), inguinal adipose tissue", "result": "6100 ± 1500", "unit": "ng/g"}, {"measurement": "concentration at 4 h", "setting": "[2]; mesenteric adipose tissue, read-out: tissue levels (in relative value), mesenteric adipose tissue", "result": "6600 ± 400", "unit": "ng/g"}, {"measurement": "concentration at 4 h", "setting": "[2]; plasma, ± SEM, n=3, read-out: mean plasma levels", "result": "17000 ± 3580", "unit": "ng/mL"}, {"measurement": "concentration at 4 h", "setting": "[2]; subcutaneous adipose tissue, read-out: tissue levels (in relative value), subcutaneous adipose tissue", "result": "1300 ± 100", "unit": "ng/g"}, {"measurement": "% inhibition after 4 h", "setting": "[3]; 4 h after 0.63 mg/kg oral", "result": 21, "unit": "%"}, {"measurement": "% inhibition after 4 h", "setting": "[3]; 4 h after 2.5 mg/kg oral", "result": 41, "unit": "%"}, {"measurement": "% inhibition after 4 h", "setting": "[3]; 4 h after 10 mg/kg oral", "result": 70, "unit": "%"}, {"measurement": "increase of plasma exposure versus Compound 1", "setting": "[4]", "result": "~8", "unit": "fold"}, {"measurement": "Plasma 1 h", "setting": "[5]; 10 mg/kg oral, 1 h", "result": "13900 ± 2117", "unit": "ng/mL"}, {"measurement": "concentration at 1 h", "setting": "[5]; male, C57BL/6N, mouse, plasma, po, 2.5 mg/kg, 2.5 mg/kg oral, 1 h", "result": "4240 ± 1260", "unit": "ng/mL"}, {"measurement": "concentration at 4 h", "setting": "[5]; male, C57BL/6N, mouse, plasma, po, 2.5 mg/kg, 2.5 mg/kg oral", "result": "3470 ± 2430", "unit": "ng/mL"}, {"measurement": "concentration at 4 h", "setting": "[5]; male, C57BL/6N, mouse, plasma, po, 10 mg/kg, 10 mg/kg oral", "result": "6810 ± 674", "unit": "ng/mL"}, {"measurement": "% inhibition at 1 h", "setting": "[6]; mouse plasma (2% final volume), 1 h after 0.63 mg/kg oral", "result": 47, "unit": "%"}, {"measurement": "% inhibition at 1 h", "setting": "[6]; mouse plasma, 1 h after 2.5 mg/kg oral", "result": 78, "unit": "%"}, {"measurement": "% inhibition at 1 h", "setting": "[6]; mouse plasma, 1 h after 10 mg/kg oral", "result": 91, "unit": "%"}, {"measurement": "% inhibition at 4 h", "setting": "[6]; mouse plasma, 4 h after 0.63 mg/kg oral", "result": 36, "unit": "%"}, {"measurement": "% inhibition at 4 h", "setting": "[6]; mouse plasma, 4 h after 2.5 mg/kg oral", "result": 67, "unit": "%"}, {"measurement": "% inhibition at 4 h", "setting": "[6]; mouse plasma, 4 h after 10 mg/kg oral", "result": 86, "unit": "%"}, {"measurement": "inhibition at 2.5 mg/kg", "setting": "[6]; [9]", "result": "75 ± 4", "unit": "%"}, {"measurement": "inhibition at 2.5 mg/kg", "setting": "[6]; [10]", "result": "63 ± 6", "unit": "%"}, {"measurement": "inhibition at 10 mg/kg", "setting": "[6]; [9]", "result": "89 ± 1", "unit": "%"}, {"measurement": "inhibition at 10 mg/kg", "setting": "[6]; [10]", "result": "85 ± 2", "unit": "%"}, {"measurement": "inhibition of the ex vivo activity of hepatic 11β-HSD type 1", "setting": "[7]", "result": 68, "unit": "%"}, {"measurement": "Emax (% inhibition at 10 μM)", "setting": "[8]; 10 μM", "result": 97, "unit": "% inhibition"}, {"measurement": "EC50", "setting": "[8]; 1 h pretreatment, 20 nM tritiated cortisone 4 h, three donors", "result": 58, "unit": "nM"}]}
